Read-outs that look alike come from different tables or passages of the source.
What was measured:
[1] = system: P-gp (human MDR1); test: Bidirectional transport across LLC-PK1-MDR1 monolayer stably expressing human MDR1 (P-gp) (Transwell); details: pig;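 also: 2 h incubation at 37 °C, receiver HBSS with 10 mM Hepes plus 1% BSA, LC-MS/MS of donor and receiver, recovery as receiver plus donor amount over initial donor amount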
Description: (§3) The overexpression and functional activity of P-glycoprotein (P-gp) in the LLC-PK1-MDR1 cells were rigorously validated through multiple methods.
(§4) Cells were passaged at 80−90% confluence (every 2−3 days) using trypsin-EDTA solution. […] The culture medium was replaced every other day, including 200 µL culture medium in the apical and 850 µL cell culture medium in the basolateral side. LLC-PK1 MOCK cells were used at passages of 3−30. LLC-PK1-MDR1 cells were cultured and passaged in the same manner as LLC-PK1 cells except at the density of 1 × 10^4 cells per well. LLC-PK1-MDR1 cells were used at passages of 3−25. For LLC-PK1 MOCK cells and LLC-PK1-MDR1 cells, the experiments were performed on the 4th and 7th day after seeding.
(§5) Monitoring permeability of positive control drugs. […] Samples were collected from the donor well at the start of the incubation (50 µL) as C0, and from the donor and receiver wells at the end of the incubation (50 µL). All samples were stored at - 40 °C for LC-MS/MS analysis.
(§6) Bidirectional transport experiments. […] The transwell experiments were conducted following above-mentioned procedure. […] When the recovery rate of the tested drug is below 80%, the possibility of intracellular accumulation should be considered. The polycarbonate (PC) membrane where cells are grown should be carefully peeled off from the cell culture medium and placed in 100 µL of HBSS buffer solution. […] The process was carried out on ice to prevent heat-induced degradation, applying a power in the range of 300 W for a total duration of 20 minutes. Thereafter, a quantitative analysis of the intracellular drug was conducted, and the drug recovery rate was recalculated based on this analysis.
(§7) The apparent permeability coefficient (Papp, cm/s) was calculated for each transport direction, A-B and B-A, using the following equation: Papp=dQ/dt×1/A×C0 where dQ/dt is the permeation rate (µmol/s), A is the surface area of the insert (0.33 cm^2, Corning), and C0 is the initial donor concentration (µM).
(§8) The efflux ratio (ER) is calculated as the ratio of Papp (B-A)/Papp (A-B). Recovery=TRcumrf+Cdf×VD/Cdi×VD×100% Where TRcumrf is the cumulative transported mass in the receiver chamber at the end of the incubation (nmol), Cdf is the concentration of the drug in the donor chamber at the end of the incubation (μM), VD is the volume of the donor chamber (mL), and Cdi is the initial concentration of the drug in the donor chamber (μM).
(§9) The method of the bidirectional transport experiment was the same as before.

[2] = in vitro
Description: (§1) Stocks (10 mM) of test compounds were diluted to 5 μM with plasma or tissue homogenate and dialyzed at 37 °C for 6 hours in a shaking incubator. After incubation aliquots of both plasma or tissue homogenate and buffer from the device were taken and added to equal volumes of blank buffer and plasma or tissue homogenate respectively. Samples were then diluted in acetonitrile containing an internal standard prior to centrifugation and analysis of the supernatants by LC-MS/MS. The fu, plasma was calculated using Equation 1:(1) fu,plasma=Concbuffer chamber/Concsample chamber
(§2) Unbound fractions of test drugs in plasma (fu,plasma) and brain tissue (fu,brain). For compounds with existing rat plasma or brain protein-binding data from literature or internal studies, values were directly adopted.

[3] = in vitro; details: pig; for recovery at 2 h, 2 µM: pH 7.4
[4] = in vitro; remark: listed apart in the source
Description: as §1
Rat fraction unbound in brain (fu, brain) was determined as the ratio of concentration in buffer to that in brain.
as §2

[5] = cited from earlier work
[6] = in vivo; details: rat
Source text: In vivo unbound brain distribution data (Kp,uu,Brain) for 16 drugs and total brain distribution data (Kp,Brain) for 16 drugs was acquired from literature. […] For each tested compound, fifteen rats were randomly divided into five groups of three rats each. […] The time of execution of the rats by CO2 inhalation after administration was optimized according to the in vivo elimination rate to achieve five concentrations of different time points. After the rats were euthanized, cardiac puncture was performed immediately to remove as much whole blood as possible (~7 ml) from the systemic circulation (Quantitatively aliquot 0.2 ml of whole blood for the determination of drug concentration in plasma). Afterwards, the brain tissue was collected immediately and rinsed repeatedly with ice-cold saline 3 times. Then, the surface saline was blotted dry with clean filter paper to remove as much residual drug in the blood vessels as possible. Plasma samples were prepared by centrifugation of the blood samples at 2,500 g for 10 minutes at 4 °C. All brain samples were homogenized by adding 4-fold volume water. All samples were stored at -40 °C before LC-MS/MS analysis. […] The brain tissue partition coefficient (Kp, brain) and brain-to-plasma unbound drug partition ratio (Kp,uu, brain) are calculated according to the following formulas, respectively: Kp,brain=AUC(0−∞,brain)/AUC(0−∞,plasma)Kp,uu,brain=Kp,brain×(fu,tissue/fu,plasma)
Free brain-to-plasma distribution coefficients (Kp,uu,brain) of 41 drugs. Brain distribution coefficients (Kp,uu,brain) were calculated for 41 drugs. […] Plasma and brain concentration-time profiles were generated, and AUC(0-t) values for both matrices were calculated using WinNolin 8.1. Kp,brain was derived as the ratio of brain-to-plasma AUC(0-t).
Kp,uu,brain values were computed by normalizing Kp,brain to unbound fractions (fu,plasma and fu,brain).

[7] = Bidirectional transport across LLC-PK1 MOCK monolayer (Transwell); details: pig; for recovery at 2 h, 2 µM: LLC-PK1 MOCK cell monolayer (Transwell);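 as to all read-outs here: compound quantified by LC-MS/MS in donor and receiver wells, efflux ratio as B-A over A-B Papp, recovery relative to initial donor amount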
[8] = system: P-gp (human MDR1); test: in vitro; details: pig, LLC-PK1, pH 7.4;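 also: 2 h incubation at 37 °C, receiver HBSS with 10 mM Hepes plus 1% BSA, LC-MS/MS of donor and receiver, recovery as receiver plus donor amount over initial donor amount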
Description: as §3, §4, §5, §6, §7, §8, §9

[9] = cited from earlier work; remark: listed apart in the source
[10] = LLC-PK1, pH 7.4, Papp A-B, LLC-PK1-MDR1, 2 µM, 2 h, mean ± s, n = 3
[11] = LLC-PK1 MOCK cell monolayer (Transwell)
[12] = LLC-PK1, pH 7.4, Papp A-B, LLC-PK1 MOCK, 2 µM, 2 h, mean ± s, n = 3, BLQ = below 2 nM
[13] = footnote b, species not stated, ref https://go.drugbank.com

Row | SMILES | Papp B→A at 2 h, 2 µM ([1]; LLC-PK1, pH 7.4) [×10⁻⁶ cm/s] | fraction unbound at 6 h, 5 µM ([2]; rat, plasma) | recovery at 2 h, 2 µM [3, 11] [%] | fraction unbound at 6 h, 5 µM ([4]; rat, brain homogenate) | Papp B→A at 2 h, 2 µM ([7]; LLC-PK1, pH 7.4) [×10⁻⁶ cm/s] | Papp A→B at 2 h, 2 µM [7, 12] [×10⁻⁶ cm/s] | Papp A→B at 2 h, 2 µM ([1]; LLC-PK1, pH 7.4) [×10⁻⁶ cm/s] | efflux ratio at 2 h, 2 µM ([1]; LLC-PK1, pH 7.4) | recovery at 2 h, 2 µM [8] [%] | efflux ratio at 2 h, 2 µM ([7]; LLC-PK1, pH 7.4) | Kp ([6]; SD, iv, 1 mg/kg, Kp, Brain) | Kp uu ([6]; SD, iv, 1 mg/kg) | also measured
1 | Cn1c(=O)c2c(ncn2C)n(C)c1=O [Caffeine] | 33.3 ± 1.49 | 0.772 | 121 ± 2.48 | 0.719 | 34.1 ± 1.49 | 34 ± 1.22 |  |  |  |  |  |  | Papp A→B at 2 h, 2 µM [1, 10]: 36.4 ± 1.42 ×10⁻⁶ cm/s; Kp, Brain ([5]; ref Bohnert [2016]): 0.618; Kp uu [6]: 0.576
2 | COCCOC(=O)C1=C(C)NC(C)=C(C(=O)OC(C)C)C1c1cccc([N+](=O)[O-])c1 (stereo not shown) [Nimodipine] | 44.5 ± 5.11 |  | 109 ± 7.08 | < 0.01 | 46.2 ± 1.79 | 33.7 ± 2.08 | 32.2 ± 1.83 | 1.39 | 114 ± 5.22 | 1.37 |  |  | Kp, Brain ([5]; ref Li [2020]): 2.25; Kp uu [6]: < 0.451; Protein binding in plasma [9, 13]: 95.0^b %
3 | COc1cc([C@@H]2c3cc4c(cc3[C@@H](O[C@@H]3O[C@@H]5CO[C@@H](C)O[C@H]5[C@H](O)[C@H]3O)[C@H]3COC(=O)[C@H]23)OCO4)cc(OC)c1O [Etoposide] | 3.68 ± 0.22 |  | 106 ± 0.11 | < 0.01 | 0.16 ± 0.02 |  | 0.75 ± 0.1 |  | 100 ± 2.47 |  | 0.025 |  | Kp ([6]; SD, iv, 1 mg/kg, Kp,uu,Brian): 0.008; Protein binding in plasma [9, 13]: 97.0^b %
4 | COc1ccc2[nH]c([S+]([O-])Cc3ncc(C)c(OC)c3C)nc2c1 (stereo not shown) [Omeprazole] | 41.5 ± 2.92 | 0.045 |  | 0.321 | 28.9 ± 1.39 | 34.2 ± 0.55 |  |  | 113 ± 1.46 |  |  |  | Papp A→B at 2 h, 2 µM [1, 10]: 25.4 ± 0.66 ×10⁻⁶ cm/s; Kp, Brain ([5]; ref Cheng et al. [2002]): 0.15; Kp uu [6]: 1.09
5 | NC(=O)C[S+]([O-])C(c1ccccc1)c1ccccc1 (stereo not shown) [Modafinil] | 23.9 ± 0.91 |  |  |  | 15.6 ± 0.22 |  | 22.7 ± 0.45 | 1.05 | 107 ± 3.4 | 0.78 |  |  | recovery at 2 h, 2 µM [3]: 106 ± 2.03%; fraction unbound at 6 h, 5 µM [4]: 0.308; Kp ([6]; SD, in vivo, iv, 1 mg/kg): 0.71; Kp uu ([6]; SD, in vivo, iv, 1 mg/kg): 0.547; Protein binding in plasma [9, 13]: 60^b %; Papp A→B at 2 h, 2 µM ([7]; LLC-PK1, pH 7.4): 20.2 ± 0.98 ×10⁻⁶ cm/s
6 | Cc1cc(=O)n(-c2ccccc2)n1C [Antipyrine] | 28.9 ± 1.75 |  |  | 0.809 | 23.6 ± 1.43 | 31.4 ± 3.13 | 30.9 ± 1.46 |  | 113 ± 1.41 |  | 0.755 | 0.72 | Protein binding in plasma ([2]; rat, 6 h, 5 µM): 15.0 ± 5.22%; recovery at 2 h, 2 µM ([7]; pH 7.4, Recovery A-B, LLC-PK1 MOCK, 2 µM, 2 h, n = 3): 116 ± 7.41%; recovery at 2 h, 2 µM ([7]; pH 7.4, Recovery B-A, LLC-PK1 MOCK, 2 µM, 2 h, n = 3): 95.2 ± 2.32%
7 | CCOc1ccc(NC(C)=O)cc1 [Phenacetin] | 29 ± 1.19 | 0.416 |  | 0.419 |  | 35.2 ± 0.08 | 36.6 ± 2.48 |  |  |  | 0.763 | 0.768 | Papp B→A at 2 h, 2 µM ([3]; LLC-PK1, pH 7.4): 27.2 ± 1.32 ×10⁻⁶ cm/s
8 | CN/C(=N/CCSCc1nc[nH]c1C)NC#N [Cimetidine] | 33.9 ± 4.3 | 0.722 | 96.9 ± 13.3 | 0.655 | 0.28 ± 0.07 | 0.69 ± 0.07 |  |  | 87.4 ± 9.65 |  | 0.007 | 0.008 | Papp A→B at 2 h, 2 µM [1, 10]: 1.32 ± 0.31 ×10⁻⁶ cm/s
9 | CC[C@]1(O)C[C@@H]2CN(CCc3c([nH]c4ccccc34)[C@@](C(=O)OC)(c3cc4c(cc3OC)N(C)[C@H]3[C@@](O)(C(=O)OC)[C@H](OC(C)=O)[C@]5(CC)C=CCN6CC[C@]43[C@@H]65)C2)C1 [Vinblastine] | 20.4 ± 1.81 | 0.06 | 86.5 ± 1.69 | < 0.01 | 4.16 ± 0.32 | 4.33 ± 0.21 | 2.84 ± 0.27 | 7.2 | 103 ± 9.03 | 0.96 | 0.528 | < 0.088 | 
10 | Cc1ncc2n1-c1ccc(Cl)cc1C(c1ccccc1F)=NC2 [Midazolam] | 27 ± 2.23 |  |  |  | 31.6 ± 5.1 |  | 29.5 ± 1 | 0.91 | 100 ± 3 | 1.32 |  |  | recovery at 2 h, 2 µM [3]: 99.6 ± 1.73%; fraction unbound at 6 h, 5 µM [4]: 0.022; Kp, Brain ([5]; footnote a, ref Internal data): 2.44^a; Kp uu ([6]; in vivo): 1.42; Protein binding in plasma ([9]; footnote a, ref Internal data): 97.0^a %; Papp A→B at 2 h, 2 µM ([7]; LLC-PK1, pH 7.4): 24.7 ± 0.41 ×10⁻⁶ cm/s
11 | COc1ccc2c(c1)[C@]13CCCC[C@@H]1[C@H](C2)N(C)CC3 [Dextromethorphan] | 21.9 ± 3.18 |  |  |  | 25.9 ± 0.91 |  | 18.8 ± 0.12 | 1.17 | 93.6 ± 6.54 | 0.73 |  |  | fraction unbound at 6 h, 5 µM [2]: 0.35; fraction unbound at 6 h, 5 µM [4]: 0.033; Kp ([6]; SD, in vivo, iv, 1 mg/kg): 11.5; Kp uu ([6]; SD, in vivo, iv, 1 mg/kg): 0.825; Papp A→B at 2 h, 2 µM ([7]; LLC-PK1, pH 7.4): 35.5 ± 2.09 ×10⁻⁶ cm/s

— publication PMC12667295, “A surrogate barrier model for high-throughput blood-brain barrier permeability prediction: integrating LLC-PK1-MOCK/MDR1 Cells and lysosomal trapping correction” (Drug Delivery, 2025)
